PubChem BioAssay (NCI)
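Cultured in 96-well plates, cells were exposed to test compound for 48 hours across five concentrations. TGI: total growth inhibition.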

Columns and labels:
Assay in all cases: DTP human tumour cell line panel, 48 h
CAKI-1 renal = test system: CAKI-1 renal
SF-539 CNS = test system: SF-539 CNS
HCC-2998 colon = test system: HCC-2998 colon
SK-MEL-28 melanoma = test system: SK-MEL-28 melanoma
MDA-MB-231 breast = test system: MDA-MB-231 breast
EKVX NSCLC = test system: EKVX NSCLC
OVCAR-8 ovarian = test system: OVCAR-8 ovarian
NCI-H23 lung = test system: NCI-H23 lung
RPMI-8226 leukemia = test system: RPMI-8226 leukemia
SW-620 colon = test system: SW-620 colon
TK-10 renal = test system: TK-10 renal
COLO 205 colon = test system: COLO 205 colon
HT29 colon = test system: HT29 colon
SNB-19 CNS = test system: SNB-19 CNS
MALME-3M melanoma = test system: MALME-3M melanoma
MDA-N = test system: MDA-N
KM12 colon = test system: KM12 colon
DU-145 prostate = test system: DU-145 prostate
UACC-62 melanoma = test system: UACC-62 melanoma
OVCAR-4 ovarian = test system: OVCAR-4 ovarian

| Structure (SMILES) | TGI (CAKI-1 renal) | TGI (SF-539 CNS) | TGI (HCC-2998 colon) | TGI (SK-MEL-28 melanoma) | TGI (MDA-MB-231 breast) | TGI (EKVX NSCLC) | TGI (OVCAR-8 ovarian) | TGI (NCI-H23 lung) | TGI (RPMI-8226 leukemia) | TGI (SW-620 colon) | TGI (TK-10 renal) | TGI (COLO 205 colon) | TGI (HT29 colon) | TGI (SNB-19 CNS) | TGI (MALME-3M melanoma) | TGI (MDA-N) | TGI (KM12 colon) | TGI (DU-145 prostate) | TGI (UACC-62 melanoma) | TGI (OVCAR-4 ovarian) |
| --- | --- | --- | --- | --- | --- | --- | --- | --- | --- | --- | --- | --- | --- | --- | --- | --- | --- | --- | --- | --- |
| Cc1nn(C(=O)Cc2ccccc2)c2c1C(c1ccccc1)SC(N)=N2 (stereo not given) | > 100 µM | > 100 µM | > 100 µM | > 100 µM | > 100 µM | > 100 µM | > 100 µM | > 100 µM | > 100 µM | > 100 µM | > 100 µM | > 100 µM | > 100 µM | > 100 µM | > 100 µM | > 100 µM | > 100 µM | > 100 µM | > 100 µM |  |
| C/C(=N\NC(N)=S)c1ccc2c(c1)Sc1ccccc1O2 | 4.37 µM | 4.79 µM | 4.65 µM | 69.9 µM | > 100 µM | 13.6 µM | 7.16 µM | 79.1 µM | 16.4 µM | > 100 µM | 30.7 µM | 7.28 µM | 5.83 µM | > 100 µM | > 100 µM | 2.31 µM | > 100 µM | > 100 µM | 12.3 µM | 57.1 µM |
| COC(=O)c1cccc(C)c1C1CN=NC12Cc1cc(C)cc(C)c1C2=O (stereo not given) | > 100 µM | > 100 µM | 76.7 µM | > 100 µM | 77.6 µM | 90.3 µM | > 100 µM | > 100 µM | > 100 µM | > 100 µM | > 100 µM |  | 86.7 µM | > 100 µM | > 100 µM | > 100 µM | > 100 µM | > 100 µM |  | > 100 µM |
| O=C1SC(SCc2ccccc2)=NC12CC2c1ccccc1 (stereo not given) | 40.5 µM | 37.7 µM | 28.8 µM | 41.5 µM | 43.5 µM | 44 µM | 41.8 µM | 42 µM | 48.3 µM | 53.3 µM | 81.1 µM | 61.3 µM | 54 µM | 71.1 µM | 34.8 µM | 49 µM | 33.2 µM | > 81 µM | 32.8 µM | 51.7 µM |
| C=CCNC(=S)N/C=C(\C#N)C(N)=O | > 100 µM | > 100 µM | > 100 µM | > 100 µM | > 100 µM | > 100 µM | > 100 µM | > 100 µM | > 100 µM | > 100 µM |  | > 100 µM | > 100 µM | > 100 µM | > 100 µM | > 100 µM | > 100 µM | > 100 µM | > 100 µM | > 100 µM |
| CCOC(=O)c1cn2c(n1)sc1cc(F)ccc12 | > 100 µM | > 100 µM | > 100 µM | > 100 µM | > 100 µM | > 100 µM | > 100 µM | > 100 µM | > 100 µM | > 100 µM | > 100 µM | > 100 µM | > 100 µM | > 100 µM | > 100 µM | > 100 µM | > 100 µM | > 100 µM | > 100 µM | > 100 µM |
| CC(=O)CC1CCC(=O)/C=C/C(=O)OC(CC(C)=O)CCC(=O)/C=C/C(=O)O1 (stereo not given) | 20 µM | 34.9 µM | 39.4 µM | 20.5 µM | 15 µM | 21.2 µM | 53.5 µM | 36.4 µM | > 100 µM | 3.65 µM | 19 µM | 3.4 µM | 31.6 µM | 43.4 µM | 6.72 µM | 24 µM | 42.8 µM | 35 µM | 29.1 µM | 25.4 µM |
| C(=C/CCCN1O[C@@H](CCCCCCCCc2cccnc2)[C@H]2CCC[C@H]21)/CCCCCCCCCc1cccnc1 | 33.1 µM | 34.9 µM |  | 48.7 µM | 36.9 µM | 13.9 µM | 88.3 µM | 61.7 µM | 28 µM | 91.8 µM | 38.4 µM | 30.9 µM | 61.1 µM | 85 µM | 33.9 µM | 71.9 µM | 58.7 µM | > 100 µM | 51 µM | > 100 µM |
| COCOC1/C=C/CCCCC(=O)C(C)C#CC1 (stereo not given) | 13.7 µM | 11.7 µM | 20.2 µM | 25.4 µM | 15.6 µM | 23.1 µM | 17.7 µM | 16.3 µM | 5.96 µM | 3.56 µM | 21.6 µM | 5.4 µM | 8.28 µM | 32.6 µM | 4.95 µM | 27 µM | 25.5 µM | 25.4 µM | 15.8 µM | 24.4 µM |
| Cc1ccc(S(=O)(=O)N2C3C=CC(C3)[C@@H]2C(Cl)(Cl)Cl)cc1 (stereo not given in full) | > 68.5 µM | 30 µM | 48.7 µM | 57.2 µM | 33.3 µM | 55 µM | > 63.3 µM | > 100 µM | 32.1 µM | 44.9 µM | > 100 µM | 38.2 µM | 31.8 µM | > 87.6 µM | 56.1 µM | 86.9 µM | 85.5 µM | > 81.2 µM | 35.2 µM | > 77.1 µM |
| O=C(O)C1C2c3ccccc3C(c3ccccc32)C1C(=O)NCC1CC1 (stereo not given) | > 100 µM | > 100 µM | 55.1 µM | > 100 µM | > 100 µM | > 100 µM | > 100 µM | > 100 µM | 85.3 µM | > 100 µM | > 100 µM | > 100 µM | > 100 µM | > 100 µM | > 100 µM | > 100 µM | > 100 µM | > 100 µM | > 100 µM | > 100 µM |
| NC(Cc1ccccc1)C(=O)NC(Cc1ccccc1)NC(=O)C(Cc1c[nH]c2ccccc12)C(=O)O (stereo not given) | > 100 µM | > 100 µM | > 100 µM | > 100 µM | > 100 µM | > 100 µM | > 100 µM | > 100 µM | > 100 µM | > 100 µM | > 100 µM | > 100 µM | > 100 µM | > 100 µM | > 100 µM | > 100 µM | > 100 µM | > 100 µM | > 100 µM | > 100 µM |
| CCN(CC)CCCNC(=O)c1cc(-c2nccn2C)nc2ccccc12 | > 100 µM | > 100 µM | > 100 µM |  | > 100 µM | > 100 µM | > 100 µM | > 100 µM | > 100 µM | > 100 µM | > 100 µM | > 100 µM | > 100 µM | > 100 µM | > 100 µM | > 100 µM | > 100 µM | > 100 µM | > 100 µM | > 100 µM |
| Cc1ccc(Nc2nc(NNC(=O)Cc3ccccc3)nc(NNC(=O)c3ccncc3)n2)cc1 | > 10 µM | > 10 µM | > 10 µM | > 10 µM | > 10 µM | > 10 µM | > 10 µM | > 10 µM | > 10 µM | > 10 µM | > 10 µM | > 10 µM | > 10 µM |  | > 10 µM | > 10 µM | > 10 µM | > 10 µM | > 10 µM | > 10 µM |
| CCOC(=O)/C(C#N)=C/c1coc2cc(C)cc(C)c2c1=O | > 100 µM | > 100 µM | > 100 µM | > 100 µM | > 100 µM | > 100 µM | > 100 µM | > 100 µM | > 100 µM | > 100 µM | > 100 µM | > 100 µM | > 100 µM | > 100 µM | > 100 µM | > 100 µM | > 100 µM | > 100 µM | > 100 µM |  |
| CC(C)=C[C@H]1C[C@H](C)[C@H]2CC[C@H](C)c3c2c1c(C)c1ncoc31 | 35.5 µM | 32.5 µM | 35.8 µM | 37 µM | 39.3 µM | 30 µM | 36.8 µM |  | 36.9 µM | 36 µM | 31.7 µM | 33.6 µM |  | 32.3 µM | 29.5 µM | 34.2 µM | 34.5 µM | 33.9 µM | 32.9 µM | 34.1 µM |
| O=C(C(=O)n1ccc2ccccc21)n1ccc2ccccc21 | > 100 µM | > 100 µM | > 100 µM | > 100 µM | > 100 µM | > 100 µM | > 100 µM | > 100 µM | > 100 µM | > 100 µM | > 100 µM | > 100 µM | > 100 µM | > 100 µM | > 100 µM | > 100 µM |  | > 100 µM | > 100 µM | 78 µM |
| O=C1c2cc3c(cc2CC12Cc1ccc4c(c1C2=O)CCC4)CCCC3 (stereo not given) | > 100 µM | > 100 µM | > 100 µM | > 100 µM | > 100 µM | > 100 µM | > 100 µM | > 100 µM | > 100 µM | > 100 µM | > 100 µM |  | > 100 µM | > 100 µM | > 100 µM | > 100 µM |  | > 100 µM |  | > 100 µM |
| O=C(O)Cc1ccc([N+](=O)[O-])cc1[N+](=O)[O-] | > 100 µM | > 100 µM |  | > 100 µM | > 100 µM | > 100 µM | > 100 µM | > 100 µM | > 100 µM | > 100 µM | > 100 µM | > 100 µM | > 100 µM | > 100 µM | > 100 µM | > 100 µM | > 100 µM | > 100 µM | > 100 µM | > 100 µM |
